This passage reports AC1.4 results from US11780826B2 (Amgen Inc., priority 2017, dated 2023).

This assay concerns Bovine cardiac myofibrils. As to the kind of experiment: In vitro model of dose-dependent myofibril ATPase modulation (AC1.4, pyruvate kinase/lactate dehydrogenase-coupled ATPase assay at pCa25). As to conditions: concentration at which ATPase activity was 1.4-fold higher than the bottom of the dose curve, mean of a minimum of two independent tests. Format: biochemical. The method, boiled down: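 Bovine cardiac myofibrils, detergent-treated; 0.25-1.0 mg/ml. Buffer: K-PIPES 12 mM, MgCl2 2 mM, DTT 1 mM, BSA 0.1 mg/ml, pH 6.80, 22° C; Ca2+ set by EGTA/CaCl2. ATP 1 mM, NADH/PEP-coupled, A340. 4-parameter fit; n≥2.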
Regarding `CS(=O)(=O)c1cc(C(=O)N2C[C@@H](F)C[C@@H]2C(=O)N[C@@H](c2cc(F)c(Cl)cc2F)C2CC2)ccn1` [Example 510, (4S)-N-((R)-(4-chloro-2,5-difluorophenyl)(cyclopropyl)methyl)-4-fluoro-1-((2-(methylsulfonyl)-4-pyridinyl)carbonyl)-D-prolinamide], the AC1.4 came out at 2.2505 µM.
For `N#CC1CN(S(=O)(=O)c2cccc(C(=O)N3CCC[C@@H]3C(=O)NCc3ccc(CF)cc3)c2)C1` [Example 157, 1-((3-((3-cyano-1-azetidinyl)sulfonyl)phenyl)carbonyl)-N-(4-(fluoromethyl)benzyl)-D-prolinamide] the value was 0.2727 µM.
Consider `CCS(=O)(=O)c1cccc(C(=O)N2[C@@H](C(=O)N[C@@H](c3cc(F)c(Cl)cc3F)C3COC3)C[C@H]3C[C@H]32)c1` [Example 66, (1R,3R,5R)-N-((R)-(4-chloro-2,5-difluorophenyl)(3-oxetanyl)methyl)-2-(3-(ethylsulfonyl)benzoyl)-2-azabicyclo[3.1.0]hexane-3-carboxamide], for which the AC1.4 was determined as 0.0766 µM.
In turn, `CCS(=O)(=O)c1cccc(C(=O)N2[C@@H](C(=O)N[C@@H](c3ccc(C(F)(F)F)cc3F)C3COC3)C[C@H]3C[C@H]32)c1` [Example 128, (1R,3R,5R)-2-(3-(ethylsulfonyl)benzoyl)-N-((R)-(2-fluoro-4-(trifluoromethyl)phenyl)(3-oxetanyl)methyl)-2-azabicyclo[3.1.0]hexane-3-carboxamide] gave an AC1.4 of 0.2103 µM.
The compound `O=C(NCc1ccc(C(F)(F)F)cc1)[C@H]1CCCN1C(=O)[C@H]1CCCN(S(=O)(=O)N2CC(n3ccnc3)C2)C1` [Example 562, 1-(((3S)-1-((3-(1H-imidazol-1-yl)-1-azetidinyl)sulfonyl)-3-piperidinyl)carbonyl)-N-(4-(trifluoromethyl)benzyl)-D-prolinamide] showed an AC1.4 of 3.025 µM.
Compound `CS(=O)(=O)c1cccc(C(=O)N2CCC[C@@H]2C(=O)NC(c2ccc(C(F)(F)F)cc2)C2CNC(=O)C2)c1` (stereo partly drawn) [Example 482] registered an AC1.4 of 1.945 µM.
As for `N#CC1CN(S(=O)(=O)N2CCC[C@H](C(=O)N3CCC[C@@H]3C(=O)N[C@@H](CO)c3ccc(Cl)c(F)c3)C2)C1` [Example 441, N-((1R)-1-(4-chloro-3-fluorophenyl)-2-hydroxyethyl)-1-(((3S)-1-((3-cyano-1-azetidinyl)sulfonyl)-3-piperidinyl)carbonyl)-D-prolinamide], the AC1.4 amounted to 1.7265 µM.
For `O=C(N[C@@H](c1cc(F)c(Cl)cc1F)C1COC1)[C@H]1C[C@H]2C[C@H]2N1C(=O)c1cc(C(F)(F)F)ccn1` [Example 233, (1R,3R,5R)-N-((R)-(4-chloro-2,5-difluorophenyl)(3-oxetanyl)methyl)-2-((4-(trifluoromethyl)-2-pyridinyl)carbonyl)-2-azabicyclo[3.1.0]hexane-3-carboxamide] the value was 0.5241 µM; for `CS(=O)(=O)c1cccc(C(=O)N2C[C@@H](C(F)F)C[C@@H]2C(=O)N[C@@H](c2ccc(C(F)(F)F)cc2F)C2CC2)c1` [Example 656, (4S)-N-((R)-cyclopropyl(2-fluoro-4-(trifluoromethyl)phenyl)methyl)-4-(difluoromethyl)-1-(3-(methylsulfonyl)benzoyl)-D-prolinamide], 4.071 µM; for `COc1ccc2c(c1)[C@H](NC(=O)[C@H]1CCCN1C(=O)[C@H]1CCCN(S(=O)(=O)N3CC(C#N)C3)C1)CCO2` [Example 783, 1-(((3S)-1-((3-cyano-1-azetidinyl)sulfonyl)-3-piperidinyl)carbonyl)-N-((4R)-6-methoxy-3,4-dihydro-2H-chromen-4-yl)-D-prolinamide], 8.7825 µM.
Turning to `O=C(NCc1ccc(C(F)(F)F)cc1)[C@H]1CCCN1C(=O)[C@H]1CCCN(S(=O)(=O)N2CC3(C2)CC(O)(C(F)(F)F)C3)C1` [Example 743, 1-(((3S)-1-((6-hydroxy-6-(trifluoromethyl)-2-azaspiro[3.3]hept-2-yl)sulfonyl)-3-piperidinyl)carbonyl)-N-(4-(trifluoromethyl)benzyl)-D-prolinamide], the AC1.4 was determined as 7.2015 µM.
For `CS(=O)(=O)c1cccc(C(=O)N2C[C@H](F)C[C@@H]2C(=O)N[C@@H](c2ccc(C(F)(F)F)cc2F)C2CC2)c1` [Example 619, (4R)-N-((R)-cyclopropyl(2-fluoro-4-(trifluoromethyl)phenyl)methyl)-4-fluoro-1-(3-(methylsulfonyl)benzoyl)-D-prolinamide] the value was 3.929 µM; for `O=C(NCc1ccc(C(F)(F)F)cc1)[C@H]1CCCN1C(=O)c1cccc(S(=O)(=O)N2CCC2)c1` [Example 486, 1-(3-(l-azetidinylsulfonyl)benzoyl)-N-(4-(trifluoromethyl)benzyl)-D-prolinamide], 2.202 µM.
Consider `N#CC1CN(S(=O)(=O)N2CCC[C@H](C(=O)N3CCC[C@@H]3C(=O)NCc3c(F)c(F)c(F)c(F)c3F)C2)C1` [Example 338, 1-(((3S)-1-((3-cyano-1-azetidinyl)sulfonyl)-3-piperidinyl)carbonyl)-N-(pentafluorobenzyl)-D-prolinamide], for which the AC1.4 amounted to 0.948 µM.
For `CN(C)S(=O)(=O)c1cccc(C(=O)N2C[C@H]3C[C@H]3[C@@H]2C(=O)NCc2ccc(C(F)(F)F)cc2)c1` [Example 478, (1R,2R,5S)-3-(3-(dimethylsulfamoyl)benzoyl)-N-(4-(trifluoromethyl)benzyl)-3-azabicyclo[3.1.0]hexane-2-carboxamide] the value was 2.082 µM.
For `C[C@@H](NC(=O)[C@H]1C[C@H]2C[C@H]2N1C(=O)c1cccc(S(C)(=O)=O)c1)c1cc(F)c(Cl)cc1F` [Example 534, (1R,3R,5R)-N-((1R)-1-(4-chloro-2,5-difluorophenyl)ethyl)-2-(3-(methylsulfonyl)benzoyl)-2-azabicyclo[3.1.0]hexane-3-carboxamide] the value was 2.611 µM.
For `N#CC1(F)CN(S(=O)(=O)N2CCC[C@H](C(=O)N3CCC[C@@H]3C(=O)NCc3ccc(C(F)(F)F)cc3F)C2)C1` [Example 327, 1-(((3S)-1-((3-cyano-3-fluoro-1-azetidinyl)sulfonyl)-3-piperidinyl)carbonyl)-N-(2-fluoro-4-(trifluoromethyl)benzyl)-D-prolinamide], the AC1.4 is 0.8893 µM.
In the case of `N#CC1CN(S(=O)(=O)N2CCC[C@H](C(=O)N3CCC[C@@H]3C(=O)NCc3ccc(F)cc3F)C2)C1` [Example 360, 1-(((3S)-1-((3-cyano-1-azetidinyl)sulfonyl)-3-piperidinyl)carbonyl)-N-(2,4-difluorobenzyl)-D-prolinamide], the AC1.4 amounted to 1.11 µM.
As to `N#C[C@H]1CCN(S(=O)(=O)N2CCC[C@H](C(=O)N3CCC[C@@H]3C(=O)NCc3ccc(C(F)(F)F)cc3)C2)C1` [Example 192, 1-(((3S)-1-(((3S)-3-cyano-1-pyrrolidinyl)sulfonyl)-3-piperidinyl)carbonyl)-N-(4-(trifluoromethyl)benzyl)-D-prolinamide], the AC1.4 worked out at 0.3628 µM.
Take `NC(=O)[C@H]1C[C@@H](S(=O)(=O)N2CCC[C@H](C(=O)N3CCC[C@@H]3C(=O)NCc3ccc(C(F)(F)F)cc3)C2)C1` [Example 425, 1-(((3S)-1-((cis-3-carbamoylcyclobutyl)sulfonyl)-3-piperidinyl)carbonyl)-N-(4-(trifluoromethyl)benzyl)-D-prolinamide]: the AC1.4 stood at 1.5805 µM.
Regarding `CS(=O)(=O)c1cccc(C(=O)N2[C@@H](C(=O)N[C@@H](c3cc(F)c(Cl)c(F)c3)C3CC3)C[C@H]3C[C@H]32)c1` [Example 278, (1R,3R,5R)-N-((R)-(4-chloro-3,5-difluorophenyl)(cyclopropyl)methyl)-2-(3-(methylsulfonyl)benzoyl)-2-azabicyclo[3.1.0]hexane-3-carboxamide], the AC1.4 was 0.7012 µM.
Compound `N#C[C@H]1C[C@H](S(=O)(=O)c2cccc(C(=O)N3CCCC[C@@H]3C(=O)NCc3ccc(C(F)(F)F)nc3)c2)C1` [Example 355, (2R)-1-((3-((trans-3-cyanocyclobutyl)sulfonyl)phenyl)carbonyl)-N-((6-(trifluoromethyl)-3-pyridinyl)methyl)-2-piperidinecarboxamide] had an AC1.4 of 1.0472 µM.
Compound `O=C(NCc1ccc(C(F)(F)F)cc1F)[C@H]1CCCN1C(=O)[C@H]1CCCN(S(=O)(=O)N2CC(O)(C3CC3)C2)C1` [Example 199, 1-(((3S)-1-((3-cyclopropyl-3-hydroxy-1-azetidinyl)sulfonyl)-3-piperidinyl)carbonyl)-N-(2-fluoro-4-(trifluoromethyl)benzyl)-D-prolinamide] registered an AC1.4 of 0.4078 µM.
Turning to `Cc1ccc(F)c(CNC(=O)[C@H]2CCCN2C(=O)[C@H]2CCCN(S(=O)(=O)N3CC(C#N)C3)C2)c1` [Example 642, 1-(((3S)-1-((3-cyano-1-azetidinyl)sulfonyl)-3-piperidinyl)carbonyl)-N-(2-fluoro-5-methylbenzyl)-D-prolinamide], the AC1.4 stood at 4.2755 µM.
Compound `O=C(NCc1ccc(C(F)(F)F)cc1)[C@H]1CCCN1C(=O)[C@H]1CCCN(S(=O)(=O)C2CCOC2)C1` (stereo partly drawn) [Example 766, (2R)-1-((3S)-1-((tetrahydrofuran-3-yl)sulfonyl)piperidine-3-carbonyl)-N-(4-(trifluoromethyl)benzyl)pyrrolidine-2-carboxamide] came in with an AC1.4 of 7.933 µM.
`C#CC1(O)CN(S(=O)(=O)N2CCC[C@H](C(=O)N3CCC[C@@H]3C(=O)NCc3ccc(C(F)(F)F)cc3F)C2)C1` [Example 196, 1 (((3S)-1-((3-ethynyl-3-hydroxy-1-azetidinyl)sulfonyl)-3-piperidinyl)carbonyl)-N-(2-fluoro-4-(trifluoromethyl)benzyl)-D-prolinamide] yielded an AC1.4 of 0.3906 µM.
Under `CC1(O)CN(S(=O)(=O)N2CCC[C@H](C(=O)N3C[C@@H](F)C[C@@H]3C(=O)NCc3ccc(C(F)(F)F)cc3)C2)C1` [Example 683, (4S)-4-fluoro-1-(((3S)-1-((3-hydroxy-3-methyl-1-azetidinyl)sulfonyl)-3-piperidinyl)carbonyl)-N-(4-(trifluoromethyl)benzyl)-D-prolinamide] stands 5.096 µM.
